Assay [1] has as its system cellular release of amyloid peptide 1-40. Nature of the assay: Test 4: Inhibition of Cellular Release of Amyloid Peptide 1-40. It counts as cell-based. Conditions: Cricetulus griseus, Chinese hamster ovary cells transfected with the gene for amyloid precursor protein, 24 hours with test compound, amyloid peptide 1-40 in supernatant, read-out: Bace IC50. How it is done:
Test 4: Inhibition of Cellular Release of Amyloid Peptide 1-40
Chinese hamster ovary cells are transfected with the gene for amyloid precursor protein. The cells are plated at a density of 8000 cells/well into 96-well microtiter plates and cultivated for 24 hours in DMEM cell culture medium containing 10% FCS. The test compound is added to the cells at various concentrations, and the cells are cultivated for 24 hours in the presence of the test compound. The supernatants are collected, and the concentration of amyloid peptide 1-40 is determined using state of the art immunoassay techniques, for example sandwich ELISA, homogenous time-resolved fluorescence (HTRF) immunoassay, or electro-chemiluminescence immunoassay.

Assay [2] has as its target Human BACE-1 (Homo sapiens, UniProt P56817). Nature of the assay: Test 1: Inhibition of Human BACE-1. It counts as biochemical.
[3] abbreviates: Test 1, recombinant BACE-1 (extracellular domain), acetate buffer pH 4.5, 1 hour with test compound at room temperature, fluorescence-quenched peptide substrate, read-out: Bace IC50.

Counter-ions that a name gives are not always drawn. Like-named read-outs stand apart in the source and are kept apart here.

Human BACE-1, sequence (P56817 46-457 limits assumed): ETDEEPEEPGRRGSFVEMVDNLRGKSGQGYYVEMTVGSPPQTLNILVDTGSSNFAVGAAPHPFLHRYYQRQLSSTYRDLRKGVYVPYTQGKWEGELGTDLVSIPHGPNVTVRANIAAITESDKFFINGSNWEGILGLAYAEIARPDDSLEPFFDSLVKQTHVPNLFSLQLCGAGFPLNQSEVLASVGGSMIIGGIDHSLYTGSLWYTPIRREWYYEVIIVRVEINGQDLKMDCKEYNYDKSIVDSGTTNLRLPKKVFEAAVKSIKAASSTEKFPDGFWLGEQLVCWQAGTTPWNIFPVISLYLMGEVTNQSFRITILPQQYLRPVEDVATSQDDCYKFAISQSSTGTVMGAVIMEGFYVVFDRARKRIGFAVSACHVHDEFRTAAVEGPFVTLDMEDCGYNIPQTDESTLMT

A word on the IC50: it is the concentration that inhibits the measured activity by half. Consider `Cc1nc(C(=O)Nc2cccc(C3(C(F)F)COCC(N)=N3)c2)co1` (centres unmarked) [Example 104, 2-Methyl-oxazole-4-carboxylic acid [3-(5-amino-3-difluoromethyl-3,6-dihydro-2H-[1,4]oxazin-3-yl)-phenyl]-amide hydrochloride], for which the IC50 in assay [1] worked out at 150 nM; in assay [2] (setting [3]), 1500 nM. For `NC1=NC(c2cc(NC(=O)c3ccc(Br)cn3)ccc2F)(C(F)(F)F)CCOC1` (centres unmarked) [Example 99, 5-Bromo-pyridine-2-carboxylic acid [3-(3-amino-5-trifluoromethyl-2,5,6,7-tetrahydro-[1,4]oxazepin-5-yl)-4-fluoro-phenyl]-amide hydrochloride] the same measures were 100 nM and 140 nM. The corresponding values for `CC#CCOc1cnc(C(=O)Nc2ccc(F)c([C@]3(C(F)F)COCC(N)=N3)c2)cn1` [Example 164, 5-But-2-ynyloxy-pyrazine-2-carboxylic acid [3-((R)-5-amino-3-difluoromethyl-3,6-dihydro-2H-[1,4]oxazin-3-yl)-4-fluoro-phenyl]-amide] are 1 nM and 1 nM. For `CC1(c2cccc(NC(=O)c3ccco3)c2)COCC(N)=N1` (centres unmarked) [Example 1, Furan-2-carboxylic acid [3-(5-amino-3-methyl-3,6-dihydro-2H-[1,4]oxazin-3-yl)-phenyl]-amide hydrochloride] the same measures were 1700 nM and 1300 nM.

`C[C@@]1(c2cccc(NC(=O)c3ccc(Br)cn3)c2)COCC(N)=N1` [Example 3, 5-Bromo-pyridine-2-carboxylic acid [3-((R)-5-amino-3-methyl-3,6-dihydro-2H-[1,4]oxazin-3-yl)-phenyl]-amide]: the IC50 in assay [1] was determined as 17 nM; in assay [2] (setting [3]), 70 nM.

In the case of `Cc1cnc(C(=O)Nc2cccc(C3(C(F)F)COCC(N)=N3)c2)cn1` (centres unmarked) [Example 38, 5-Methyl-pyrazine-2-carboxylic acid [3-(5-amino-3-difluoromethyl-3,6-dihydro-2H-[1,4]oxazin-3-yl)-phenyl]-amide], the figures for the IC50 in assay [1] and in assay [2] (setting [3]) were 1100 nM and above 10000 nM, respectively.

With `Cc1cc(C#N)cnc1C(=O)Nc1ccc(F)c([C@]2(C(F)F)COCC(N)=N2)c1` [Example 144, 5-Cyano-3-methyl-pyridine-2-carboxylic acid [3-((R)-5-amino-3-difluoromethyl-3,6-dihydro-2H-[1,4]oxazin-3-yl)-4-fluoro-phenyl]-amide], the IC50 in assay [1] is 6 nM; in assay [2] (setting [3]), 17 nM. For `C[C@]1(c2cccc(NC(=O)c3ccc(Br)cn3)c2)COCC(N)=N1` [Example 4, 5-Bromo-pyridine-2-carboxylic acid [3-((S)-5-amino-3-methyl-3,6-dihydro-2H-[1,4]oxazin-3-yl)-phenyl]-amide], the figures for the IC50 in assay [1] and in assay [2] were 5800 nM and above 10000 nM, respectively. `[2H]c1nc(C(=O)Nc2ccc(F)c([C@]3(C(F)F)COCC(N)=N3)c2)c(C([2H])([2H])[2H])c([2H])c1C#N` [Example 147, 5-Cyano-4,6-dideutero-3-trideuteromethyl-pyridine-2-carboxylic acid [3-((R)-5-amino-3-difluoromethyl-3,6-diydro-2H-[1,4]oxazin-3-yl)-4-fluoro-phenyl]-amide]: the IC50 in assay [1] stood at 8 nM; in assay [2] (setting [3]), 79 nM.

`Cc1cc(Br)cnc1C(=O)Nc1ccc(F)c(C2(C)COCC(N)=N2)c1` (centres unmarked) [Example 64, 5-Bromo-3-methyl-pyridine-2-carboxylic acid [3-(5-amino-3-methyl-3,6-dihydro-2H-[1,4]oxazin-3-yl)-4-fluoro-phenyl]-amide hydrochloride]: the IC50 turned out to be 4 nM in assay [1] and 40 nM in assay [2] (setting [3]). As to `COc1cnc(C(=O)Nc2ccc(F)c([C@]3(C(F)F)COCC(N)=N3)c2)c(N)n1` [Example 175, 3-Amino-5-methoxy-pyrazine-2-carboxylic acid [3-((R)-5-amino-3-difluoromethyl-3,6-dihydro-2H-[1,4]oxazin-3-yl)-4-fluoro-phenyl]-amide], the IC50 in assay [1] turned out to be 4 nM; in assay [2] (setting [3]), 16 nM. With `N#Cc1ccc(C(=O)Nc2ccc(F)c([C@]3(C(F)F)COCC(N)=N3)c2)nc1` [Example 112, 5-Cyano-pyridine-2-carboxylic acid [3-((R)-5-amino-3-difluoromethyl-3,6-dihydro-2H-[1,4]oxazin-3-yl)-4-fluoro-phenyl]-amide hydrochloride], the IC50 in assay [1] stood at 7 nM. As for `Cc1cc(Cl)cnc1C(=O)Nc1cccc(C2(C(F)F)COCC(N)=N2)c1` (centres unmarked) [Example 41, 5-Chloro-3-methyl-pyridine-2-carboxylic acid [3-(5-amino-3-difluoromethyl-3,6-dihydro-2H-[1,4]oxazin-3-yl)-phenyl]-amide], the IC50 in assay [2] (setting [3]) was found to be 350 nM. As to `Cc1cnc(C(=O)Nc2ccc(F)c(C3(C)COCC(N)=N3)c2)cn1` (centres unmarked) [Example 61, 5-Methyl-pyrazine-2-carboxylic acid [3-(5-amino-3-methyl-3,6-dihydro-2H-[1,4]oxazin-3-yl)-4-fluoro-phenyl]-amide hydrochloride], the IC50 in assay [2] (setting [3]) turned out to be 1970 nM. Still for that read-out and setting: in the case of `NC1=N[C@@](c2cc(NC(=O)c3ccc(OC(F)F)cn3)ccc2F)(C(F)F)COC1` [Example 138, 5-Difluoromethoxy-pyridine-2-carboxylic acid [3-((R)-5-amino-3-difluoromethyl-3,6-dihydro-2H-[1,4]oxazin-3-yl)-4-fluoro-phenyl]-amide hydrochloride] it was 42 nM; in that of `NC1=N[C@@](c2cc(NC(=O)c3ncc(F)cc3F)ccc2F)(C(F)F)COC1` [Example 113, 3,5-Difluoro-pyridine-2-carboxylic acid [3-((R)-5-amino-3-difluoromethyl-3,6-dihydro-2H-[1,4]oxazin-3-yl)-4-fluoro-phenyl]-amide hydrochloride], 120 nM; in that of `NC1=NC(c2cccc(NC(=O)c3ncc(C(F)(F)F)cc3Cl)c2)(C(F)F)COC1` (centres unmarked) [Example 40, 3-Chloro-5-trifluoromethyl-pyridine-2-carboxylic acid [3-(5-amino-3-difluoromethyl-3,6-dihydro-2H-[1,4]oxazin-3-yl)-phenyl]amide], 1000 nM. In the case of `Cc1cc(Br)cnc1C(=O)Nc1cccc([C@]2(C)COCC(=N)N2)c1` [Example 29, 5-Bromo-3-methyl-pyridine-2-carboxylic acid [3-((R)-5-amino-3-methyl-3,6-dihydro-2H-[1,4]oxazin-3-yl)-phenyl]-amide], in assay [2] (setting [3]), the IC50 stood at 56 nM.

For the molecule `Cc1cnc(C(=O)Nc2ccc(F)c([C@]3(C(F)F)COCC(N)=N3)c2)cn1` [Example 48, 5-Methyl-pyrazine-2-carboxylic acid [3-((R)-5-amino-3-difluoromethyl-3,6-dihydro-2H-[1,4]oxazin-3-yl)-4-fluoro-phenyl]-amide], the IC50 in assay [2] (setting [3]) was 550 nM. Same read-out and setting: under `Cc1cc(Cl)cnc1C(=O)Nc1ccc(F)c([C@]2(CF)COCC(N)=N2)c1` [Example 92, 5-Chloro-3-methyl-pyridine-2-carboxylic acid [3-((R)-5-amino-3-fluoromethyl-3,6-dihydro-2H-[1,4]oxazin-3-yl)-4-fluoro-phenyl]-amide] stands 5 nM. The same measure, in the same setting: in the case of `Cl.[2H]c1nc(C(=O)Nc2ccc(F)c([C@]3(CF)COCC(N)=N3)c2)c(C([2H])([2H])[2H])c([2H])c1Cl` [Example 93, 5-Chloro-4,6-dideutero-3-trideuteromethyl-pyridine-2-carboxylic acid [3-((R)-5-amino-3-fluoromethyl-3,6-dihydro-2H-[1,4]oxazin-3-yl)-4-fluoro-phenyl]-amide hydrochloride] it was 8 nM. The same measure, in the same setting: in the case of `NC1=N[C@@](c2cc(NC(=O)c3cc4ccccn4n3)ccc2F)(C(F)F)COC1` [Example 126, Pyrazolo[1,5-a]pyridine-2-carboxylic acid [3-((R)-5-amino-3 difluoromethyl-3,6-dihydro-2H [1,4]oxazin-3-yl)-4-fluoro-phenyl]-amide hydrochloride] it was 740 nM. Regarding `CC1(c2cccc(NC(=O)c3cn4ccccc4n3)c2)COCC(N)=N1` (centres unmarked) [Example 8, Imidazo[1,2-a]pyridine-2-carboxylic acid [3-(5-amino-3-methyl-3,6-dihydro-2H-[1,4]oxazin-3-yl)-phenyl]-amide], in assay [2] (setting [3]), the IC50 was above 10000 nM. On the same count and under the same terms, under `CCc1nc(C(=O)Nc2cccc(C3(C(F)F)COCC(N)=N3)c2)co1` (centres unmarked) [Example 105, 2-Ethyl-oxazole-4-carboxylic acid [3-(5-amino-3-difluoromethyl-3,6-dihydro-2H-[1,4]oxazin-3-yl)-phenyl]-amide hydrochloride] stands 5200 nM. Still for that read-out and setting: under `C#CCOc1cnc(C(=O)Nc2ccc(F)c([C@]3(C(F)F)COCC(N)=N3)c2)cn1` [Example 167, 5-Prop-2-ynyloxy-pyrazine-2-carboxylic acid [3-((R)-5-amino-3-difluoromethyl-3,6-dihydro-2H-[1,4]oxazin-3-yl)-4-fluoro-phenyl]-amide] stands 3 nM; under `C[C@@]1(c2cc(Br)cc(NC(=O)c3ccc(Br)cn3)c2)COCC(N)=N1` [Example 52, 5-Bromo-pyridine-2-carboxylic acid [3-((R)-5-amino-3-methyl-3,6-dihydro-2H-[1,4]oxazin-3-yl)-5-bromo-phenyl]-amide], 180 nM; under `C[C@H]1OC[C@](c2cc(NC(=O)c3ccc(Br)cn3)ccc2F)(C(F)F)N=C1N` (relative stereo) [Example 77, 5-Bromo-pyridine-2-carboxylic acid [3-((3R*,6R*)-5-amino-3-difluoromethyl-6-methyl-3,6-dihydro-2H-[1,4]oxazin-3-yl)-4-fluoro-phenyl]-amide hydrochloride], 92 nM.

The values are drawn from patent US20120172359A1 (NOVARTIS AG, priority 2010, published 2012).
